{"source": "ChEMBL document CHEMBL1147603", "about": "“Fluoropyrrolidine amides as dipeptidyl peptidase IV inhibitors” (Bioorg Med Chem Lett, 2004)", "key": {"[1]": {"assay": "(§1) Volume of distribution at steady state was determined after 1 mg/kg (i.v.) / 2 mg/kg (p.o.) of compound administration", "format": "ADME, organism-based, Canis lupus familiaris", "details": "dog, in vivo, iv, read-out: Vdss"}, "[2]": {"assay": "(§2) Half-life period was determined after 1 mg/kg (i.v.) / 2 mg/kg (p.o.) of compound administration", "format": "ADME, organism-based, Canis lupus familiaris", "details": "dog, in vivo"}, "[3]": {"assay": "as §1", "format": "ADME, organism-based", "details": "rat, in vivo, iv, read-out: Vdss"}, "[4]": {"assay": "(§3) Plasma clearance was determined after 1 mg/kg (i.v.) / 2 mg/kg (p.o.) of compound administration", "format": "ADME, organism-based", "details": "rat, iv, read-out: Clp"}, "[5]": {"assay": "as §2", "format": "ADME, organism-based", "details": "rat, in vivo"}, "[6]": {"assay": "(§4) Maximum plasma concentration reached by compound was determined after 2 mg/kg (p.o.) administration", "format": "ADME, organism-based", "design": "dose 2 mg/kg, route oral", "details": "rat, po"}, "[7]": {"assay": "as §4", "format": "ADME, organism-based, Canis lupus familiaris", "design": "dose 2 mg/kg, route oral", "details": "dog, po"}, "[8]": {"assay": "as §3", "format": "ADME, organism-based, Canis lupus familiaris", "details": "dog, iv, read-out: Clp"}}}
{"smiles": "N[C@H](C(=O)N1CC[C@H](F)C1)[C@H]1CC[C@H](NS(=O)(=O)c2ccc(F)cc2F)CC1", "values": [{"measurement": "Vd", "setting": "[1]", "value": 4.4, "unit": "L/kg"}, {"measurement": "half-life", "setting": "[2]", "value": 5.9, "unit": "h"}, {"measurement": "Vd", "setting": "[3]", "value": 2.5, "unit": "L/kg"}, {"measurement": "clearance", "setting": "[4]", "value": 24, "unit": "mL/min/kg"}, {"measurement": "half-life", "setting": "[5]", "value": 1.6, "unit": "h"}, {"measurement": "Cmax", "setting": "[6]", "value": 400, "unit": "nM"}, {"measurement": "Cmax", "setting": "[7]", "value": 1000, "unit": "nM"}, {"measurement": "clearance", "setting": "[8]", "value": 9.1, "unit": "mL/min/kg"}]}
